According to paper PMC8262356, “SLC26A6-selective inhibitor identified in a small-molecule screen blocks fluid absorption in small intestine” (JCI Insight, 2021):

Columns and labels:
SLC26A9 = target: T1, SLC26A9 (Homo sapiens, UniProt Q7LBE3); experiment: Selectivity: Cl-/I- exchange in FRT cells coexpressing YFP and SLC26A9; format: cell-based; conditions: 25 μM
T1 construct: expressed in transfected cells; host or cells: FRT cells coexpressing YFP
T1 sequence (Q7LBE3 1-791): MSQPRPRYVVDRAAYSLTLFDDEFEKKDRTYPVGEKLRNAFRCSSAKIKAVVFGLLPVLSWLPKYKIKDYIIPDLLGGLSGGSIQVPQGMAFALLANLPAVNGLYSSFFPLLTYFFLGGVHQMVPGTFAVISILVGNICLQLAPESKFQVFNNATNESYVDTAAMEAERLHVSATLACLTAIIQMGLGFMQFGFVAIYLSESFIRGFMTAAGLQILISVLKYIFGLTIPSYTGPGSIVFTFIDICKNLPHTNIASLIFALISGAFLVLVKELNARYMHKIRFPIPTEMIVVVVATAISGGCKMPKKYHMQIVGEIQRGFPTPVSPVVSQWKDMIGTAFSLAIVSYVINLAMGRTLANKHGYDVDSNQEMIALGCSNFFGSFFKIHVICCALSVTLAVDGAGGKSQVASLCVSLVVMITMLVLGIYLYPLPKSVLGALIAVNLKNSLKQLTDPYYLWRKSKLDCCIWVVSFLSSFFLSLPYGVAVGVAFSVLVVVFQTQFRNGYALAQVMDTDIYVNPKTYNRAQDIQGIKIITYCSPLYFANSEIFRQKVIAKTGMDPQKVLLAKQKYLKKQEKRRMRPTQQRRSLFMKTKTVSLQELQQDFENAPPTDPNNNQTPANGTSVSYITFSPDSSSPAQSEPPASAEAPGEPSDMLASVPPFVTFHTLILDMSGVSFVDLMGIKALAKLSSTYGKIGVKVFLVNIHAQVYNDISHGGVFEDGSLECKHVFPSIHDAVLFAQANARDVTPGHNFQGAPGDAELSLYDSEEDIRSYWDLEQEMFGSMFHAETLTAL
Protocol: (§1) PAT1inh-B01 selectivity was studied by testing its effects on related SLC26A family anion transporters and the Cl^– channel TMEM16A. These measurements used a similar Cl^–/I^– exchange protocol, but FRT cells separately expressed each of the SLC26A family members or TMEM16A. […] PAT1inh-B01 selectivity was also tested by short-circuit current (Isc) in well-differentiated human bronchial epithelial (HBE) cells, which have a complex ion transport mechanism that includes cystic fibrosis transmembrane conductance regulator (CFTR), epithelial Na^+ channel (ENaC), and Ca^+2-activated chloride channels (CaCCs) ([13]). […] Potential PAT1inh-B01 cytotoxicity was studied in FRT cells.
(§2) Figure 3 PAT1inh-B01 selectivity and cytotoxicity. […] Cl^–/I^– exchange or I^– influx measured in FRT cells coexpressing YFP and SLC26A isoforms or TMEM16A, with data shown for 25 μM PAT1inh-B01, DMSO vehicle control, and 500 μM niflumic acid (positive control for SLC26A transporters) or 10 μM TMinh-23 (positive control for TMEM16A). […] (C) (left) Short-circuit current (Isc) in well-differentiated HBE cells measured in the absence (top) and presence (bottom) of 25 μM PAT1inh-B01. […]
(§3) YFP-based cellular assays of slc26a3, slc26a4, SLC26A9, and TMEM16A function were performed as described previously ([7]). […] The activities of ENaC, CFTR, and CaCC were determined using well-differentiated HBE cells as described previously ([13]). […]

CFTR = target: T2, CFTR (Homo sapiens, UniProt P13569); experiment: Short-circuit current in well-differentiated HBE cells, forskolin/CFTRinh-172 response; format: cell-based; conditions: 25 μM pretreatment
T2 construct: endogenous in cells; host or cells: well-differentiated human bronchial epithelial (HBE) cells at air-liquid interface
T2 sequence (P13569 whole entry): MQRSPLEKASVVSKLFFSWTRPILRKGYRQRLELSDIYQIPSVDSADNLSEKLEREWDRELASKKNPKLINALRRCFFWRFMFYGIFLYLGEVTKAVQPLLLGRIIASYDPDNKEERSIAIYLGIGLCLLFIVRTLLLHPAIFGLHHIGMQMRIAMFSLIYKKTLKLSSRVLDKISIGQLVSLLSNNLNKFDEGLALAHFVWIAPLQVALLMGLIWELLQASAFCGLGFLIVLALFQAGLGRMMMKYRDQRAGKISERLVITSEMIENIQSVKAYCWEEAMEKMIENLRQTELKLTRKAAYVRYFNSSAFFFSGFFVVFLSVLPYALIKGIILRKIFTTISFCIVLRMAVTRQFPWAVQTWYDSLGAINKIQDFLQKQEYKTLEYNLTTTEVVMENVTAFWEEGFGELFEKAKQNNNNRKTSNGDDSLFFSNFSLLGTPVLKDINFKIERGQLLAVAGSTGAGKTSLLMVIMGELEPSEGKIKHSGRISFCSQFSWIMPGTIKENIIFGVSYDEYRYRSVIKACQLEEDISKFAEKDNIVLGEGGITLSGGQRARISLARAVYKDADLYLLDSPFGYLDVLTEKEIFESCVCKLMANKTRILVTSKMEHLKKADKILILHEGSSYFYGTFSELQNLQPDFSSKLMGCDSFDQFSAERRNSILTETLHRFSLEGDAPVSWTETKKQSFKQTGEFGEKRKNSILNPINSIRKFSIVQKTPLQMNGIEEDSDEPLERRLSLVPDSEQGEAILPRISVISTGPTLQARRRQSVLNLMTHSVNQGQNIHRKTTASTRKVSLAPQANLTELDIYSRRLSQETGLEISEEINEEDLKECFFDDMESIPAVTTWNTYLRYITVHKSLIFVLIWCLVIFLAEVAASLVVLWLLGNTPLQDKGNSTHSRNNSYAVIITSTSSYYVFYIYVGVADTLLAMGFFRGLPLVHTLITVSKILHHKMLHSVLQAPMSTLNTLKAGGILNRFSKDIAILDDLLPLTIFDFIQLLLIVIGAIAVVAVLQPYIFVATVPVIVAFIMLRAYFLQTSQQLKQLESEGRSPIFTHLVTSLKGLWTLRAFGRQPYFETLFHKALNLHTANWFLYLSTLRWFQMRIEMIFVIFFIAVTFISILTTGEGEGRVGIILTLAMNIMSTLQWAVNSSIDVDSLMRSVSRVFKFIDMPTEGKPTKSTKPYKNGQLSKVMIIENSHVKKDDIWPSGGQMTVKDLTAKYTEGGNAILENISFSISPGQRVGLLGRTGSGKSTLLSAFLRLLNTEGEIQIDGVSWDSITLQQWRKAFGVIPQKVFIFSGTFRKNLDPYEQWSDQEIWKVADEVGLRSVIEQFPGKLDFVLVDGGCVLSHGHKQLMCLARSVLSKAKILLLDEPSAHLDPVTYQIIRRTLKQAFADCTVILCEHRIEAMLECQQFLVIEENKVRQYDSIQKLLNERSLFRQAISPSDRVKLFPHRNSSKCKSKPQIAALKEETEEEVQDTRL
Protocol: as §1, §2, §3

CaCC = experiment: Short-circuit current in well-differentiated HBE cells, ATP response; format: cell-based, human; conditions: 25 μM pretreatment
Protocol: as §1, §2, §3

FRT cells = experiment: Cytotoxicity, Alamar Blue assay; format: cell-based, rat; conditions: 10 μM, 48 h
Protocol: FRT cells were plated in black-walled, clear-bottom tissue culture plates at a density of 20,000 cells/well. After 24 hours in culture, cells were incubated with 10 μM PAT1inh-B01, 0.1% DMSO (vehicle control), or 20 % DMSO (positive control) for 48 hours for assay of cell viability using Alamar Blue (Thermo Fischer Scientific) according to the manufacturer’s instructions.

inhibition of SLC26A9 (SLC26A9): did not significantly inhibit
effect on CFTR activity (Isc response to forskolin/CFTRinh-172) (CFTR): no significant effect
SMILES: Cc1c(Br)c(C(F)(F)F)nn1CC(=O)N1CCc2nc3cc(-c4ccccc4)[nH]n3c(=O)c2C1 [PAT1inh-B01]
effect on CaCC activity (Isc response to ATP) (CaCC): no significant effect
cytotoxicity (cell viability, Alamar Blue) (FRT cells): did not cause cytotoxicity
